Test results from article PMC7761743, “Structure and Characterization of Phosphoglucomutase 5 from Atlantic and Baltic Herring—An Inactive Enzyme with Intact Substrate Binding” (Biomolecules, 2020).

Target: T1, bPGM5 (Baltic herring PGM5) (Clupea harengus, UniProt A0A6P3VN15)
T1 construct: full length, 567 residues; codon-optimized, E. coli BL21(DE3), pNIC28-Bsa4, N-terminal TEV-cleavable His6-tag (kept in crystals, removed for DSF); monomer; Ser121 phosphorylated in crystal
Assay: X-ray crystal structure, […] Å
Format: binding
Settings: active site; His6-tagged protein with phosphorylated Ser121, metal modelled as Ni2+; crystals soaked overnight with 5 mM glucose-1,6-bisphosphate, observed ligand is G1P; pH 6.5

T1 sequence (A0A6P3VN15 entry or part of it): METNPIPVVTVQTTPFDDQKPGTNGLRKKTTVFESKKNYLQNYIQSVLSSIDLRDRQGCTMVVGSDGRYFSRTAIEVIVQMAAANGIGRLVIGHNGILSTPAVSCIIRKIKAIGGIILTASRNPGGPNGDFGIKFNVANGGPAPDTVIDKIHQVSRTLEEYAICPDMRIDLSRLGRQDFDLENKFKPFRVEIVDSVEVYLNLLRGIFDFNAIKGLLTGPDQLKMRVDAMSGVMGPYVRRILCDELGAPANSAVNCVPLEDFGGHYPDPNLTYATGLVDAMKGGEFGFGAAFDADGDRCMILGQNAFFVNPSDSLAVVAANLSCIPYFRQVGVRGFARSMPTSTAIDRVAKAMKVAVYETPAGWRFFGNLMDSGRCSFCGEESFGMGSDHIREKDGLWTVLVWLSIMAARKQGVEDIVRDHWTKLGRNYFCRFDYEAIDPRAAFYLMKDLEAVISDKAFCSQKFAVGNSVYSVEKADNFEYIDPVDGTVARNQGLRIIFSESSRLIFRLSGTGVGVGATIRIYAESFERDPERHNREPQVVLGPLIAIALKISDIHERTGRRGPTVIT

In the case of O=P(O)(O)O[C@H]1O[C@H](CO)[C@@H](O)[C@H](O)[C@H]1O [G1P, glucose-1-phosphate], the “X-ray crystal structure, 1.95 Å” value is reported as “the observed ligand is G1P instead of the G16P that was used in crystallization”.
